Results from patent US4785090A, “Cephalosporin derivatives” (Meiji Seika Kaisha, Ltd., priority 1984, dated 1988).
Converted amounts (≈) assume the structure as drawn. Where a name gives a salt, the structure may show the parent alone. Read-outs that look alike come from different tables or passages of the source.

Columns and labels:
Escherichia coli RGN 823 = assay: Minimum Growth Inhibitory Concentration (MIC), Escherichia coli RGN 823; assay type: cell-based; details: RGN823; Table 1, bacterium 3: Escherichia coli RGN 823
Text: (§1) Minimum Growth Inhibitory Concentration (MIC) mcg/ml
3. Escherichia coli RGN 823

Serratia marcescens N 01 = assay: Minimum Growth Inhibitory Concentration (MIC), Serratia marcescens N 01; assay type: cell-based; details: N01; Table 1, bacterium 7: Serratia marcescens N 01
Text: as §1
7. Serratia marcescens N 01

[1] = system: Enterobacter cloacae G0005; assay: Minimum Growth Inhibitory Concentration (MIC), Enterobacter cloacae G0005; assay type: cell-based; details: Table 1, bacterium 11: Enterobacter cloacae G0005
Text: as §1
11. Enterobacter cloacae G0005

Proteus vulgaris GN 76 = assay: Minimum Growth Inhibitory Concentration (MIC), Proteus vulgaris GN 76; assay type: cell-based
Text: as §1
10. Proteus vulgaris GN 76
as §1
8. Proteus vulgaris GN 76

[2] = system: Staphylococcus aureus 209PJC1; assay: Minimum Growth Inhibitory Concentration (MIC), Staphylococcus aureus 209PJC1; assay type: cell-based
Text: as §1
1. Staphylococcus aureus 209PJC1
as §1
2. Staphylococcus aureus 209 PJC1

[3] = system: Pseudomonas aeruginosa MB 3833; assay: Minimum Growth Inhibitory Concentration (MIC), Pseudomonas aeruginosa MB 3833; assay type: cell-based; details: MB3833; Table 1, bacterium 8: Pseudomonas aeruginosa MB 3833
Text: as §1
8. Pseudomonas aeruginosa MB 3833

Bacillus subtilis = assay: Minimum Growth Inhibitory Concentration (MIC), Bacillus subtilis; assay type: cell-based; details: Table 1, bacterium 2: Bacillus subtilis
Text: as §1

[4] = system: Streptococcus faecalis ATCC 8043; assay: Minimum Growth Inhibitory Concentration (MIC), Streptococcus faecalis ATCC 8043; assay type: cell-based; details: Enterococcus faecalis, ATCC8043; Table 1, bacterium 9: Streptococcus faecalis ATCC 8043
Text: as §1
9. Streptococcus faecalis ATCC 8043

[5] = system: Klebsiella pneumoniae GN 69; assay: Minimum Growth Inhibitory Concentration (MIC), Klebsiella pneumoniae GN 69; assay type: cell-based; details: GN69; Table 1, bacterium 4: Klebsiella pneumoniae GN 69
Text: as §1
4. Klebsiella pneumoniae GN 69

[6] = system: Escherichia coli NIHJ JC2; assay: Minimum Growth Inhibitory Concentration (MIC), Escherichia coli NIHJ JC2; assay type: cell-based; details: Escherichia coli, NIHJJC2, read-out: Minimum Growth Inhibitory Concentration (MIC)
Text: as §1
3. Escherichia coli NIHJ JC2

[7] = system: Staphylococcus aureus Smith; assay: Minimum Growth Inhibitory Concentration (MIC), Staphylococcus aureus Smith; assay type: cell-based; details: Staphylococcus aureus, read-out: Minimum Growth Inhibitory Concentration (MIC)
Text: as §1
1. Staphylococcus aureus Smith

Proteus rettgeri GN624 = assay: Minimum Growth Inhibitory Concentration (MIC), Proteus rettgeri GN624; assay type: cell-based; details: Providencia rettgeri, GN624, read-out: Minimum Growth Inhibitory Concentration (MIC)
Text: as §1
9. Proteus rettgeri GN624

[8] = Toxicity test in mice (intravenous); assay type: in vivo; details: for LD50 at 168 h: mouse, in vivo
Text: Further, the compound of Example 28 was intravenously adminstered to 3 mice at a dose of 1 g/kg and also the compounds of Examples 34 and 51 were similarly administered at a dose of 3 g/kg respectively, and the number of survivor was examined after a week.

Proteus mirabilis GN 79 = assay: Minimum Growth Inhibitory Concentration (MIC), Proteus mirabilis GN 79; assay type: cell-based; details: Proteus mirabilis, GN79, read-out: Minimum Growth Inhibitory Concentration (MIC)
Text: as §1
6. Proteus mirabilis GN 79

[9] = system: Klebsiella pneumoniae PCI 602; assay: Minimum Growth Inhibitory Concentration (MIC), Klebsiella pneumoniae PCI 602; assay type: cell-based; details: Klebsiella pneumoniae, PCI602, read-out: Minimum Growth Inhibitory Concentration (MIC)
Text: as §1
5. Klebsiella pneumoniae PCI 602

[10] = system: Cephalosporinase-producing Escherichia coli GN206; assay: Treatment of experimental infection in mice (Escherichia coli GN206); assay type: in vivo; details: intraperitoneal infection 1.25×10^6 CFU/mouse, subcutaneous one hour after infection, survival at one week
[11] = system: Salmonella typhimurium LT2; assay: Minimum Growth Inhibitory Concentration (MIC), Salmonella typhimurium LT2; assay type: cell-based; details: Salmonella enterica, TYPHIMURIUM, read-out: Minimum Growth Inhibitory Concentration (MIC)
Text: as §1
7. Salmonella typhimurium LT2

Eshcerichia coli GN 206 = assay: Minimum Growth Inhibitory Concentration (MIC), Escherichia coli GN 206; assay type: cell-based
Text: as §1
4. Eshcerichia coli GN 206

[12] = Serum concentration in mice after subcutaneous administration; assay type: in vivo; details: mouse, sc, subcutaneous 25 mg/kg; for concentration at 0.5 h: 1/2 hr; for concentration at 0.25 h: 1/4 hr; for concentration at 5 min: 1/12 hr
Protocol: The experiment was conducted by using 3 mice (average body weight 20 g) in each group, subcutaneously administering 25 mg/kg of the sample, taking blood samples at predetermined intervals, separating the serum and measuring the sample concentration by an antibacterial activity test using Escherichia coli as a testing bactera.

[13] = system: Serratia marcescens No. 2; assay: Minimum Growth Inhibitory Concentration (MIC), Serratia marcescens No. 2; assay type: cell-based; details: Serratia marcescens, NO.2, read-out: Minimum Growth Inhibitory Concentration (MIC)
Text: as §1
10. Serratia marcescens No. 2

[14] = system: Enterobacter cloacae G0006; assay: Minimum Growth Inhibitory Concentration (MIC), Enterobacter cloacae G0006; assay type: cell-based; details: Table 1, bacterium 6: Enterobacter cloacae G0006
Text: as §1
6. Enterobacter cloacae G0006

Proteus vulgaris OX19 = assay: Minimum Growth Inhibitory Concentration (MIC), Proteus vulgaris OX19; assay type: cell-based; details: Table 1, bacterium 5: Proteus vulgaris OX19
Text: as §1
5. Proteus vulgaris OX19

[15] = GN76, Table 1, bacterium 10: Proteus vulgaris GN 76, read-out: Minimum Growth Inhibitory Concentration (MIC)
[16] = Table 1, bacterium 1: Staphylococcus aureus 209PJC1, read-out: Minimum Growth Inhibitory Concentration (MIC)

Structure (SMILES)	MIC (Escherichia coli RGN 823) [µg/mL]	MIC (Serratia marcescens N 01) [µg/mL]	MIC [1] [µg/mL]	MIC (Proteus vulgaris GN 76; [15]) [µg/mL]	MIC [2, 16] [µg/mL]	MIC [3] [µg/mL]	MIC (Bacillus subtilis) [µg/mL]	MIC [4] [µg/mL]	MIC [5] [µg/mL]	ED50 [10] [mg/mouse]	concentration at 0.5 h [12] [ng/mL]	concentration at 0.25 h [12] [ng/mL]	concentration at 5 min [12] [ng/mL]	concentration at 1 h [12] [ng/mL]	MIC [14] [µg/mL]	MIC (Proteus vulgaris OX19) [µg/mL]	other results
CO/N=C(\C(=O)N[C@@H]1C(=O)N2C(C(=O)[O-])=C(CSc3cc[n+](CC(N)=O)c4c3CCC4)CS[C@H]12)c1csc(N)n1 [Example 35, (6R,7R)-7-[(Z)-2-(2-Aminothiazol-4-yl)-2-methoxyiminoacetamido]-3-[(2,3-cyclopenteno-1-carbamoylmethylpyridinium-4-yl)thiomethyl]-ceph-3-em-4-carboxylate]	0.1 (≈ 0.166 µM)	0.1 (≈ 0.166 µM)	0.2 (≈ 0.331 µM)	0.39 (≈ 0.646 µM)	0.1 (≈ 0.166 µM)	12.5 (≈ 20.7 µM)	0.2 (≈ 0.331 µM)	0.2 (≈ 0.331 µM)	0.05 (≈ 0.0828 µM)	–	–	–	–	–	–	–	–
CCO/N=C(\C(=O)N[C@@H]1C(=O)N2C(C(=O)O)=C(CSc3cc[n+](CC(=O)O)cc3)CS[C@H]12)c1csc(N)n1.[Na+]	–	–	–	–	–	–	–	–	–	0.065	28500	31000	26000	4000	–	–	MIC [6]: 0.78 µg/mL; MIC [7]: 0.78 µg/mL; MIC (Proteus rettgeri GN624): 1.56 µg/mL; MIC (Proteus vulgaris GN 76; Proteus vulgaris, GN76, read-out: Minimum Growth Inhibitory Concentration (MIC)): 0.1 µg/mL; MIC ([2]; Staphylococcus aureus, 209PJC1, read-out: Minimum Growth Inhibitory Concentration (MIC)): 0.39 µg/mL; survival after a week ([8]; mice, intravenous, 1 g/kg): all the mice survived; LD50 at 168 h ([8]; mice, intravenous, survivors after a week): ≥ 1000 mg/kg; MIC (Proteus mirabilis GN 79): 0.39 µg/mL; MIC [9]: 0.05 µg/mL; MIC [11]: 0.1 µg/mL; MIC (Eshcerichia coli GN 206; GN206, read-out: Minimum Growth Inhibitory Concentration (MIC)): 0.39 µg/mL; MIC (Eshcerichia coli GN 206; GN206, read-out: minimum growth inhibitory concentration (MIC)): 0.39 µg/mL; MIC [13]: 0.2 µg/mL
CO/N=C(\C(=O)N[C@@H]1C(=O)N2C(C(=O)[O-])=C(CSc3ccc4c([n+]3C)CCC4)CS[C@H]12)c1csc(N)n1 [Example 1, (6R,7R)-7-[(Z)-2-(2-Aminothiazol-4-yl)-2-methoxyiminoacetamido]-3-[(5,6-cyclopenteno-1-methylpyridinium-2-yl)thiomethyl]-ceph-3-em-4-carboxylate]	≤ 0.025	0.05 (≈ 0.0892 µM)	–	–	0.2 (≈ 0.357 µM)	12.5 (≈ 22.3 µM)	1.56 (≈ 2.78 µM)	–	≤ 0.025	–	–	–	–	–	1.56 (≈ 2.78 µM)	0.39 (≈ 0.696 µM)	–
CO/N=C(\C(=O)N[C@@H]1C(=O)N2C(C(=O)[O-])=C(CSc3cc[n+](CC(=O)O)c4c3CCC4)CS[C@H]12)c1csc(N)n1 [Example 34, (6R,7R)-7-[(Z)-2-(2-Aminothiazol-4-yl)-2-methoxyiminoacetamido]-3-[(2,3-cyclopenteno-1-carboxymethylpyridinium-4-yl)thiomethyl]-ceph-3-em-4-carboxylicacid sodium salt]	≤ 0.025	0.05	0.2	0.1	0.78	6.25	1.56	6.25	≤ 0.025	0.3	21000	35000	25000	6400	–	–	LD50 at 168 h ([8]; iv): ≥ 3000 mg/kg
Cc1cc(SCC2=C(C(=O)[O-])N3C(=O)[C@@H](NC(=O)/C(=N\OC[C@@H](N)C(=O)O)c4csc(N)n4)[C@H]3SC2)c2c([n+]1C)CCCC2 [Example 12, (6R,7R)-7-[(Z)-2-(2-Aminothiazol-4-yl)-2-(2D-2-amino-2-carboxyethoxyimino)acetamido]-3-[(6-methyl-2,3-cyclohexeno-1-methylpyridinium-4-yl)thiomethyl]-ceph-3-em-4-carboxylate]	1.56 (≈ 2.36 µM)	1.56 (≈ 2.36 µM)	–	–	3.13 (≈ 4.73 µM)	50 (≈ 75.6 µM)	12.5 (≈ 18.9 µM)	–	0.78 (≈ 1.18 µM)	–	–	–	–	–	6.25 (≈ 9.44 µM)	1.56 (≈ 2.36 µM)	–
